Laboratory results as given in patent publication US6274611A, “Methods and compositions for inhibition of viral replication” (The United States of America as represented by the …, priority 1999, dated 2001).
pEC50: −log10 of the molar value. “Also recorded” adds a separate entry of the source.

Assays:
HIV-1 [1] = test: HIV-1 activation in TNF-α-treated OM-10.1 cultures, culture supernatant reverse transcriptase activity; format: cell-based, HIV-1 in OM-10.1 cells; details: for HIV-1 inhibitory activity in the OM-10.1 induction system: OM-10.1 cells, TNF-α induction
Description: (§1) FIG. 2 is a graph showing the inhibition of HIV-1 expression and toxicity in OM-10.1 cells by DRB, and similarity to inhibition imposed by chrysin and PD 144795. Reverse transcriptase activity (--.ae butted.--) was measured (as taught in Butera et al, Mol. Med. vol. 1, pp. 758-767 (1995)) in culture supernatants 48 hr after HIV activation, and cell viability (--.tangle-solidup.--) was assessed at 24 hr by flow cytometric analysis of propidium iodide exclusion. Inset: A graph showing the inhibition of HIV-1 expression in OM-10.1 cells by chrysin- (--Δ--) and PD 144795 (--.star.--) treatment of HIV-1.
(§2) OM-10.1 and HL-60 cells as described in Example 1 were propagated in RPMI-1640 supplemented with 10% heat-inactivated fetal calf serum, 2 mM glutamine, and 1% Pen-Strep. Induction of HIV-1 using TNF-α (Butera, S. T., et al, J. Virol. Vol. 65, pp. 4645-4653 (1991)), and antiviral assays (Butera, S. T., et al MoL Med. Vol. 1, pp. 758-767 (1995), Critchfield, J. W., et al., AIDS Res. Hum. Retr. Vol. 12, pp. 39-46 (1996)), were performed as described. For binding studies, cultures were grown to a density of 106 /ml, washed twice with cold PBS, and the cell pellet either flash-frozen in dry ice/ethanol for storage at -70° C., or immediately lysed in 1 ml cold lysis buffer/10^7 cells. Lysis buffer consisted of 0.02 M HEPES (pH 7.4), 0.5% Triton X-100, 0.3 M NaCl, 20 mM NaF, 1 mM each of Na4 P2 O7, Na3 VO4, DTT, EGTA and EDTA, 1 μg/ml each of leupeptin, aprotinin, and pepstatin, 0.5 mM PMSF, and 50 nM okadaic acid. Lysates were incubated on ice for 15 min, centrifuged at 10,000×g for 15 minutes at 4° C., then the supernatants were either used immediately or stored -70° C. For binding reactions with the chrysin affinity resin, lysates (2 ml) were diluted 1:2 with ice-cold 0.02 M HEPES (pH 7.4), then competitor compounds (or 0.1% final DMSO as the control), as indicated, were added to a final concentration of 10 μM and the lysates incubated on ice for 30 min. Chrysin-Sepharose (0.2 ml) was then added and the reactions gently mixed for 1 hr at 4° C. After 3 washes with cold 0.02 M HEPES (pH 7.4), 0.15 M NaCl, 0.25% Triton X-100, bound proteins were eluted with 2 ml 0.02 M ethanolamine (pH 9.5), 0.1% SDS, 0.5 mM chrysin, 1.0% DMSO at 23° C. Samples were concentrated via centrifugation at 23° C. through a 10 kD cut-off membrane (Centricon), then analyzed by SDS-PAGE (8%), and silver stained.
HIV-1 activation experiments were conducted in the presence or absence of DRB. […] Furthermore, the effective dose range of DRB (1-10 μM) was nearly identical to that of the other compounds (FIG. 2, inset), and toxicity over the effective dose range for the other compounds was also negligible.

[2] = system: chrysin-binding proteins p44, p40, p29, p28 (subunits of CKII); test: Chrysin affinity resin binding reaction with competitor compounds in OM-10.1 cell lysates (SDS-PAGE silver stain, anti-CKII immunoblot); set-up: species or system human; details: for effect of competitor on binding of proteins (p44, p40, p29, p28) to the chrysin-resin: competitor 10 μM added to lysate of TNF-α-induced OM-10.1 cells; for effect of competitor on binding of proteins (p44, p40, p29, p28) to the chrysin-resin / effect of competitor on binding of p28 to chrysin resin: silver staining; for effect of competitor on immunodetection of α, α' and β subunits of CKII bound to the chrysin resin / effect of competitor on binding of p28 to chrysin resin: competitor 10 μM; for effect of competitor on immunodetection of α, α' and β subunits of CKII bound to the chrysin resin: anti-CKII immunoblot
Description: The affinity resin was made by attachment of 4'-OH-chrysin chrysin (apigenin) to epoxy-activated Sepharose 6B, resulting in chrysin in an ether-linkage. The resin (2 g, dry) was washed with water then 0.1 N NaOH, added to 60 ml 0.01 M apigenin in 0.1 N NaOH (or 0.1 N NaOH only for a non-derivatized control resin), and incubated with gentle mixing for 24 hr at 37° C. The resin then underwent a series of washes (Ghenbot, et al., Prot. Expr. Purif. Vol. 3, pp. 470-478 (1992)) and the residual reactive groups capped with 0.1 M ethanolamine for 16 hr at 37° C. After washing with water, the resin was stored at 4° C. in 0.2% NaN3.
as §2
For Western analysis, proteins were transferred to PVDF and probed with a combination of two antibody reagents, one recognizing an epitope common to both the α and α' subunit of CKII (Upstate Biotechnology) and the other reacting with the β subunit of CKII (a gift from D. Litchfield, University of Western Ontario). Final detection was with enhanced chemiluminescence (Amersham).
To identify the targets of HIV-1 inhibitory flavonoids, Sepharose was derivatized with the flavonoid chrysin and interacted with lysates from OM-10.1 cells as described in Example I. Cultures induced to maximally express HIV-1 (24 hr treatment with TNF-α) were utilized to ensure the presence of both cellular and viral proteins.
To further confirm that the chrysin-binding proteins were indeed the subunits of CKII, resin-binding reactions were performed using a selective inhibitor of CKII activity, 5,6 dichloro-1-β-D-ribofuranosylbenzimidazole (DRB), and the results analyzed by silver staining and anti-CKII immunoblotting. […] Since the apparent mass of the β chain of CKII is increased by phosphorylation (Luscher, B. L., et al. Eur. J. Biochem. Vol. 220, pp. 521-526 (1994)), it was possible that p28 represented an unphosphorylated form of p29. […] Furthermore, the major p28 band observed by silver stain was absent by immunoblot analysis. This absence was not due to an inability of the CKIIβ antibody to recognize dephosphorylated CKIIβ, which had lower apparent mass following alkaline phosphatase treatment. […]

OM-10.1 cells = test: OM-10.1 culture viability (flow cytometric propidium iodide exclusion); format: cell-based, human; details: OM-10.1 cultures; viability assessed at 24 hr
Description: as §1

NF-κB = NF-κB activation and I-κB degradation upon cellular activation; format: cell-based
casein kinase I = details: Shugar 1994; cited from earlier work
[3] = target: human recombinant CKII (ααββ form) (Homo sapiens, UniProt P68400); test: Human recombinant CKII enzyme kinetics; format: biochemical; details: for inhibition of CKII enzymatic activity: 37° C.
Description: Reactions were carried out at 37° C. in 0.025 M HEPES (pH 7.4), 0.15 M KCl, 0.01 M MgCl2, 1.4 mM β-mercaptoethanol, 1 mM DTT, 1 mM EGTA, 10% glycerol, 0.32 mM synthetic CKII peptide, ([…]), 1 μU/μl CKII, and the indicated concentrations of ATP and test agents. Unincorporated [γ-^32 P] ATP was removed by spotting reactions onto P81 phosphocellulose paper (Whatman) and washing in 0.75 mM phosphoric acid then acetone.

HIV-1 [4] = details: latently and chronically infected cells; Butera et al. 1995, Critchfield et al. 1996; cited from earlier work
HIV-1 [5] = test: Down modulation of cell surface CD4 in TNF-α-induced OM-10.1 cultures; format: cell-based, HIV-1 in OM-10.1 cells
From the text: Critical tools for studying the efferent phase of the HIV life cycle are the latently infected cell lines such as UI, ACH2, J1, and OM-10.1. […] HIV activation can also be achieved by phorbol esters such as PMA (phorbol -12-myristate-13-acetate).
The CD4 response is a direct consequence of viral activation and allows a rapid, convenient and highly reproducible assessment of treatments that modify TNF-α expression of HIV from its latent state. In addition, the down modulation of CD4 is not affected by inhibitors of virion assembly or release such as protease inhibitors. Thus, by measuring cell surface CD4 and a virion constituent such as reverse transcriptase (RT), it is possible to discriminate between inhibition of HIV assembly, release and earlier events.

HIV = details: acutely infected H9 cells (baicalin also CEM-ss cells and PBMCs); cited from earlier work

human recombinant CKII (ααββ form), sequence (P68400 whole entry): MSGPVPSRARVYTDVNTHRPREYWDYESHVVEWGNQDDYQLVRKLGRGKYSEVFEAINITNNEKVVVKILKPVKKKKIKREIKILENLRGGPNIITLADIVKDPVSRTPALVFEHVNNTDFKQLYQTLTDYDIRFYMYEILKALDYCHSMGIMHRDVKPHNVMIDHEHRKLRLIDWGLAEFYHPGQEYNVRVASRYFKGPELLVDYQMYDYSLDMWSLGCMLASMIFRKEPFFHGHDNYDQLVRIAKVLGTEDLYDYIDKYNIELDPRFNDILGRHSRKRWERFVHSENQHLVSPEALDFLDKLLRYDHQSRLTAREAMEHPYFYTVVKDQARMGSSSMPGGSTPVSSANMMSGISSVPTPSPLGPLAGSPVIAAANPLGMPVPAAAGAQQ
human recombinant CKII (ααββ form), sequence (P67870 whole entry partner): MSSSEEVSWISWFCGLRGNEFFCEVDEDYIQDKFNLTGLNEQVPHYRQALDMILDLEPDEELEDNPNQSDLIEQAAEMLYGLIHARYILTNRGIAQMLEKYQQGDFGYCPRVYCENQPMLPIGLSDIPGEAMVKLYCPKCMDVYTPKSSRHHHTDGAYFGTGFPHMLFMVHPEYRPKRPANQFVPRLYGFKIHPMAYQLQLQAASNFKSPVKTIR

NCCNS(=O)(=O)c1ccc(Cl)c2ccncc12 [CKI-7]
HIV-1 inhibitory activity in the OM-10.1 induction system (HIV-1 [1]): without HIV-1 inhibitory activity

OC[C@H]1O[C@@H](n2cnc3cc(Cl)c(Cl)cc32)[C@H](O)[C@@H]1O [DRB, 5,6-dichloro-1-β-D-ribofuranosylbenzimidazole]
effect of competitor on binding of proteins (p44, p40, p29, p28) to the chrysin-resin [2]: prevented the binding of the same proteins that were competed by free chrysin
effect of competitor on immunodetection of α, α' and β subunits of CKII bound to the chrysin resin [2]: eliminated their immunodetection
effect of competitor on binding of p28 to chrysin resin [2]: the only exception being p28
pEC50 (HIV-1 [1]; Human immunodeficiency virus 1, TNF-α-treated OM-10.1 cultures, RT measured 48 hr after HIV activation, read-out: ED50, reduction in culture supernatant reverse transcriptase activity): ~5.70
HIV-1 inhibitory activity in the OM-10.1 induction system (HIV-1 [1]): markedly inhibited; also recorded: potently inhibits
effective dose range for inhibition of HIV-1 expression (HIV-1 [1]; TNF-α-treated OM-10.1 cultures): 1 to 10 µM
culture viability / toxicity over the effective dose range (OM-10.1 cells): did not decline
NF-κB activation and function (NF-κB; TNF-α-treated OM-10.1 cultures): appeared normal
degradation of I-κB upon cellular activation (NF-κB; in the presence of compound): Normal degradation
inhibitory activity against casein kinase I (casein kinase I): appreciable inhibitory activity

COc1ccc2c(c1)c(OC(C)C)c(C(N)=O)[s+]2[O-] (stereo not shown) [PD 144795]
effect of competitor on binding of proteins (p44, p40, p29, p28) to the chrysin-resin [2]: pattern of binding inhibition identical to that of DRB
effect of competitor on binding of p28 to chrysin resin [2]: did not alter
inhibition of CKII enzymatic activity [3]: inhibition of CKII enzyme activity
HIV-1 inhibitory activity in the OM-10.1 induction system (HIV-1 [1]): HIV-inhibitory
inhibition of HIV transcription (HIV-1 [4]): inhibiting HIV transcription at micromolar concentrations

O=C1CN=C(c2ccc[nH]2)c2cc(Cl)ccc2N1 [Ro 5-3335]
inhibition of RT (HIV-1 [1]; TNF-α-induced OM-10.1 cultures): inhibits both of these measures to a similar extent
inhibition of down modulation of CD4 (HIV-1 [5]): inhibits both of these measures to a similar extent

O=c1cc(-c2ccc(O)cc2)oc2cc(O)cc(O)c12 [apigenin]
effect of competitor on binding of proteins (p44, p40, p29, p28) to the chrysin-resin [2]: specifically inhibited in their binding to the resin
HIV-1 inhibitory activity in the OM-10.1 induction system (HIV-1 [1]): HIV-inhibitory

O=C(O)[C@H]1O[C@@H](Oc2cc3oc(-c4ccccc4)cc(=O)c3c(O)c2O)[C@H](O)[C@@H](O)[C@@H]1O [baicalin]
inhibition of HIV replication in acutely infected cells (HIV): inhibits HIV replication

Oc1cc(O)c2c(c1)OC(c1ccc(O)c(O)c1)C(O)C2 (stereo not shown) [catechin]
effect of competitor on binding of proteins (p44, p40, p29, p28) to the chrysin-resin [2]: no effect
HIV-1 inhibitory activity in the OM-10.1 induction system (HIV-1 [1]): lacking HIV-1 inhibitory activity

O=c1cc(-c2ccccc2)oc2cc(O)cc(O)c12 [chrysin]
effect of competitor on binding of proteins (p44, p40, p29, p28) to the chrysin-resin [2]: specifically inhibited in their binding to the resin
effect of competitor on immunodetection of α, α' and β subunits of CKII bound to the chrysin resin [2]: eliminated their immunodetection
kinetics of CKII inhibition with respect to ATP [3]: competitive kinetics with respect to ATP
inhibition of CKII enzymatic activity [3]: inhibit human recombinant CKII enzymatic activity
inhibition of HIV transcription (HIV-1 [4]): potent inhibitors
inhibition of HIV replication in acutely infected cells (HIV): significant inhibitory activity

COc1ccc([C@@H]2CC(=O)c3c(O)cc(O[C@@H]4O[C@H](CO[C@@H]5O[C@@H](C)[C@H](O)[C@@H](O)[C@H]5O)[C@@H](O)[C@H](O)[C@H]4O)cc3O2)cc1O [hesperidin]
effect of competitor on binding of proteins (p44, p40, p29, p28) to the chrysin-resin [2]: no effect
HIV-1 inhibitory activity in the OM-10.1 induction system (HIV-1 [1]): lacking HIV-1 inhibitory activity
